“Also recorded” adds a separate entry of the source. No end group written: not given here. *: point of attachment. Stearoyl = CCCCCCCCCCCCCCCCCC(=O)*
Test system: C2C12 mouse skeletal muscle myotubes
Experiment: 3H-2-deoxyglucose uptake by fully differentiated C2C12 myotubes
Type: cell-based
Experimental: In particular: HBD1 SEQ ID NO: 73 (C18:0-HLGLEEPKK) at 0.8 μM, 1.5 μM, and 2.3 μM; or 1.5 μM SEQ ID NO: 73 (C18:0-HLGLEEPKK) for 2, 4, and 16 hours prior to testing glucose uptake.
The studies were performed using cultured, fully differentiated C2C12 mouse skeletal muscle myotubes. The cells were prepared by growing C2C12 cells to confluent density in DMEM with 25 mM glucose and 10% fetal bovine serum in 24 well plates. At this time, the medium was changed to differentiation medium (DMEM with 25 mM glucose and 2% horse serum) for 6 days with medium changed every third day. The various treatments were diluted in serum-free medium and, after washing the cells with serum-free medium, were added to the cells and incubated for 2 hours or alternative times, depending on the treatment. At the end of incubation period, the media was removed and 1.0 ml of glucose-free Krebs ringer bicarbonate buffer (pH 7.4), containing the same treatments, was added and incubation continued for 10 minutes. At the end of the 10 min incubation period, ^3H-2-deoxyglucose ([…]) (specific activity=8 Ci/mmole) was added directly to all wells, and the incubation continued for an additional […]. The wells were then rinsed three times with ice cold phosphate buffered saline, the cells were extracted with 0.5 N NaOH, and the ^3H-2-deoxyglucose content of the cell lysate quantitated by scintillation counting.

C18:0-HLGLEEPKK (Stearoyl-HLGLEEPKK) [SEQ ID NO: 73]
glucose uptake by C2C12 myotubes, dose dependence (FIG. 5A) (0.8 μM, 1.5 μM and 2.3 μM, vs vehicle-treated controls): stimulated increased glucose uptake as compared with vehicle-treated controls in both a dose- and time-dependent manner
glucose uptake by C2C12 myotubes, time dependence (FIG. 5B) (1.5 μM for 2, 4 and 16 hours): time-dependent manner
glucose uptake by C2C12 myotubes with insulin, separate experiment (FIG. 8) (1.5 μM plus insulin): act additively with insulin; also recorded: in an additive manner with insulin
glucose uptake by C2C12 myotubes, separate experiment (FIG. 8) (1.5 μM, alone): increased glucose uptake
glucose uptake by C2C12 myotubes in combination with insulin (FIG. 5C) (peptide plus insulin): additive increase in glucose uptake
